Experimental data reported in PMC11233931, “Remodeling tumor‐associated macrophage for anti‐cancer effects by rational design of irreversible inhibition of mitogen‐activated protein kinase‐activated protein kinase 2” (MedComm, 2024).

What was measured:
Assay in all cases: Eurofins kinase selectivity profile against 380 other human recombinant kinases (Table S2)
Format in all cases: biochemical
[1] = target: T1, 380 human recombinant protein kinases (Homo sapiens, UniProt Q9NY57); details: STK32B(h), read-out: Inhibition rate (%)
T1 construct: purchased Eurofins (Celle Lévescault)
T1 sequence (Q9NY57 whole entry): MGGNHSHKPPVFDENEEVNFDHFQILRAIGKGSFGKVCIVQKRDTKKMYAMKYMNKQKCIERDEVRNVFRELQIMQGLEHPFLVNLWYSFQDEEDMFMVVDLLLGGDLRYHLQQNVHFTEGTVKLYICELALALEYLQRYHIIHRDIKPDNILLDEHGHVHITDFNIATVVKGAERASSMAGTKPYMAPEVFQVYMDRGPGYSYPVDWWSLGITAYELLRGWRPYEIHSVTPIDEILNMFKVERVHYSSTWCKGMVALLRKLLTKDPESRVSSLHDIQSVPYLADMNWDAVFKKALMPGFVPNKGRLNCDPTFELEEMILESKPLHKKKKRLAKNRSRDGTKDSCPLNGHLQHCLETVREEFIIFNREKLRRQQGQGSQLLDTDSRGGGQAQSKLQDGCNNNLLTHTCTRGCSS
Summary of the method: (§1)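 To gauge specificity for MK2, the compound is profiled externally at various concentrations on recombinant human kinases, 380 in total.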

[2] = target: T2, 380 human recombinant protein kinases (Homo sapiens, UniProt P07332); details: Fes(h), read-out: Inhibition rate
T2 construct: purchased Eurofins (Celle Lévescault)
T2 sequence (P07332 whole entry): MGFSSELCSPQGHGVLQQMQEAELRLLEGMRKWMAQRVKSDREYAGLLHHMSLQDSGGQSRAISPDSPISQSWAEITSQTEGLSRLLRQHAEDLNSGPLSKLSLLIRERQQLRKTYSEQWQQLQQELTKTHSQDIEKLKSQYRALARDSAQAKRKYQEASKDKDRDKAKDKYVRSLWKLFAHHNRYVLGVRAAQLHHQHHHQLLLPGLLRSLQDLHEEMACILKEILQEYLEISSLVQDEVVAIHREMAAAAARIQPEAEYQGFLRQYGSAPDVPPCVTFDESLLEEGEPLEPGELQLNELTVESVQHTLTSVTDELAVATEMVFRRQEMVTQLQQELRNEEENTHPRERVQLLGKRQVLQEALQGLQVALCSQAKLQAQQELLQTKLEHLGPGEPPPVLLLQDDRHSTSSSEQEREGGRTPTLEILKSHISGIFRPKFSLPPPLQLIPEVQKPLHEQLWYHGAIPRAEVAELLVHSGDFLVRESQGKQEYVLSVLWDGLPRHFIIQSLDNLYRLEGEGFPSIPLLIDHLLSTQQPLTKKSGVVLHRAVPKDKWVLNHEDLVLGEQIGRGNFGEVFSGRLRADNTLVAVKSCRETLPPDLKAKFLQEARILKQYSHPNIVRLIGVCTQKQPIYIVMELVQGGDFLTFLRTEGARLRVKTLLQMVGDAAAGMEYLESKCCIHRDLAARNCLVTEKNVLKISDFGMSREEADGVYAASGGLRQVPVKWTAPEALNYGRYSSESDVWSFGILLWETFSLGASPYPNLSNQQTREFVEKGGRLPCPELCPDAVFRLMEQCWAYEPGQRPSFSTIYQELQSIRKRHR
Summary of the method: as §1

[3] = target: T3, 380 human recombinant protein kinases (Homo sapiens, UniProt Q14164); details: IKKε(h), read-out: Inhibition rate
T3 construct: purchased Eurofins (Celle Lévescault)
T3 sequence (Q14164 1-716): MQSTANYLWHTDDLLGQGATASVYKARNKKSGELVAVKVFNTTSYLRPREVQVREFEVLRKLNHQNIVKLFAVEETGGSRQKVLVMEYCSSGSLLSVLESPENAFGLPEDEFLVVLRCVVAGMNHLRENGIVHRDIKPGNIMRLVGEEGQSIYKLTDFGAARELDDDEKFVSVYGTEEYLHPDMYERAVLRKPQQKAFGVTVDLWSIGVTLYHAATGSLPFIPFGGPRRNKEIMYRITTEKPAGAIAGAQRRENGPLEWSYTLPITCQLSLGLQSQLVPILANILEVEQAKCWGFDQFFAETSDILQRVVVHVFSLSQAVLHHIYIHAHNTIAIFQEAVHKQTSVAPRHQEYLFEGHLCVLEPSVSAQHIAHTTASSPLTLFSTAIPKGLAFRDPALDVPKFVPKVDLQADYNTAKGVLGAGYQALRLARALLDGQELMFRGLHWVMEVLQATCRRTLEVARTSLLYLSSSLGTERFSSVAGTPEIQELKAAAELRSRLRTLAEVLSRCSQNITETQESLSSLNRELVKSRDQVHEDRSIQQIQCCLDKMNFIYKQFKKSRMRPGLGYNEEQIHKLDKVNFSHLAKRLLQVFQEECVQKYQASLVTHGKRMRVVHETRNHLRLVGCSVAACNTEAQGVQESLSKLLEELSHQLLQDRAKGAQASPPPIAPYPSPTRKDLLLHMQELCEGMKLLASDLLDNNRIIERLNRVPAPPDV
Summary of the method: as §1

[4] = target: T4, 380 human recombinant protein kinases (Homo sapiens, UniProt Q00536); details: CDK16/cyclinY(h), read-out: Inhibition rate
T4 construct: purchased Eurofins (Celle Lévescault)
T4 sequence (Q00536 whole entry): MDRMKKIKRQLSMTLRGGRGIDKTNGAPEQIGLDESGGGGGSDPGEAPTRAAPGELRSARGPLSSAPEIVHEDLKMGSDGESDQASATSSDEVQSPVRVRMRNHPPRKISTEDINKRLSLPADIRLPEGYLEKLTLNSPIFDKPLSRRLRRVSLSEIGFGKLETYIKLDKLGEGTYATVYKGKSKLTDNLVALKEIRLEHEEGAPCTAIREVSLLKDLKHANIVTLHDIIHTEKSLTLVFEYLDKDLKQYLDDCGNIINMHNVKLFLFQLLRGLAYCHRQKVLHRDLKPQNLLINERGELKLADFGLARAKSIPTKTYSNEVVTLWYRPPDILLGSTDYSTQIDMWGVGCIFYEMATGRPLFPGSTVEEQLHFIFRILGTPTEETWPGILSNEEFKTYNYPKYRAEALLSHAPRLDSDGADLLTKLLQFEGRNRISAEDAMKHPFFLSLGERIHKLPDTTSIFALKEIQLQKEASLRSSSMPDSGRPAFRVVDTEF
Summary of the method: as §1

[5] = target: T5, 380 human recombinant protein kinases (Homo sapiens, UniProt O00444); details: Plk4(h), read-out: Inhibition rate
T5 construct: purchased Eurofins (Celle Lévescault)
T5 sequence (O00444 1-970): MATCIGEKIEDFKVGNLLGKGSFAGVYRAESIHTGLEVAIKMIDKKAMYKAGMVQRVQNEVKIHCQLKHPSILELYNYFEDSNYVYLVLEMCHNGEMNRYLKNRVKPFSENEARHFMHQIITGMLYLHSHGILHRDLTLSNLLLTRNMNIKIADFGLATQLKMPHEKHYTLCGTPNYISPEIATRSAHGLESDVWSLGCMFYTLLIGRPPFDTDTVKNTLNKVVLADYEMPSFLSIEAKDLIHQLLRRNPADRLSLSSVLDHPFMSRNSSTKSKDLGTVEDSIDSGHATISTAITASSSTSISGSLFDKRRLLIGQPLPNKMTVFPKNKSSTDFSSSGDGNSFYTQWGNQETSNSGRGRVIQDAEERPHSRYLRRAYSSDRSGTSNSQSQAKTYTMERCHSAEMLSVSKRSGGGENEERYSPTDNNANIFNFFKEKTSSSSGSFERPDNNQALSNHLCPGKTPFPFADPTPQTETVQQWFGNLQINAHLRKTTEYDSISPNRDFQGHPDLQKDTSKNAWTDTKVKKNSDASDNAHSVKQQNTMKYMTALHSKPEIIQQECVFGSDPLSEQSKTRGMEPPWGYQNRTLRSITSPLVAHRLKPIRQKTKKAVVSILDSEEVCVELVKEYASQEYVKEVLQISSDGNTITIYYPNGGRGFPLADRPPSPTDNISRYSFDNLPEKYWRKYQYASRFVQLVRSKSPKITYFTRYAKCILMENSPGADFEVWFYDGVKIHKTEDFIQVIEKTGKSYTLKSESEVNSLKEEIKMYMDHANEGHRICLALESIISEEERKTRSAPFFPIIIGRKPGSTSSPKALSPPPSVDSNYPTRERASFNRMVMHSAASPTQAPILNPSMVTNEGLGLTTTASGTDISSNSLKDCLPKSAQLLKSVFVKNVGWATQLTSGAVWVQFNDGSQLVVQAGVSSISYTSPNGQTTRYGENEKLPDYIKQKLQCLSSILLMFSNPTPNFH
Summary of the method: as §1

[6] = target: T6, 380 human recombinant protein kinases (Homo sapiens, UniProt P28482); details: MAPK2(h), read-out: Inhibition rate
T6 construct: purchased Eurofins (Celle Lévescault)
T6 sequence (P28482 whole entry): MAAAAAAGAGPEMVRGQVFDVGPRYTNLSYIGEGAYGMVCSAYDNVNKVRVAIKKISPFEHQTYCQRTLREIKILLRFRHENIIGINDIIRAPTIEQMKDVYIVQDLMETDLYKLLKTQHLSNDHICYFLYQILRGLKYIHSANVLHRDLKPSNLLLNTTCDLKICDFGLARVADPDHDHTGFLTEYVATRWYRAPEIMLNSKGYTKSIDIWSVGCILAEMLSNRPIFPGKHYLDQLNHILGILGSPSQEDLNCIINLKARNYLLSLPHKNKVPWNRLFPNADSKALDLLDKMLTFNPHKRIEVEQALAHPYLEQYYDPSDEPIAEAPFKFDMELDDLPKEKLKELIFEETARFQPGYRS
Summary of the method: as §1

[7] = target: T7, 380 human recombinant protein kinases (Homo sapiens, UniProt O60331); details: PIP5K1γ(h), read-out: Inhibition rate (%)
T7 construct: purchased Eurofins (Celle Lévescault)
T7 sequence (O60331 whole entry): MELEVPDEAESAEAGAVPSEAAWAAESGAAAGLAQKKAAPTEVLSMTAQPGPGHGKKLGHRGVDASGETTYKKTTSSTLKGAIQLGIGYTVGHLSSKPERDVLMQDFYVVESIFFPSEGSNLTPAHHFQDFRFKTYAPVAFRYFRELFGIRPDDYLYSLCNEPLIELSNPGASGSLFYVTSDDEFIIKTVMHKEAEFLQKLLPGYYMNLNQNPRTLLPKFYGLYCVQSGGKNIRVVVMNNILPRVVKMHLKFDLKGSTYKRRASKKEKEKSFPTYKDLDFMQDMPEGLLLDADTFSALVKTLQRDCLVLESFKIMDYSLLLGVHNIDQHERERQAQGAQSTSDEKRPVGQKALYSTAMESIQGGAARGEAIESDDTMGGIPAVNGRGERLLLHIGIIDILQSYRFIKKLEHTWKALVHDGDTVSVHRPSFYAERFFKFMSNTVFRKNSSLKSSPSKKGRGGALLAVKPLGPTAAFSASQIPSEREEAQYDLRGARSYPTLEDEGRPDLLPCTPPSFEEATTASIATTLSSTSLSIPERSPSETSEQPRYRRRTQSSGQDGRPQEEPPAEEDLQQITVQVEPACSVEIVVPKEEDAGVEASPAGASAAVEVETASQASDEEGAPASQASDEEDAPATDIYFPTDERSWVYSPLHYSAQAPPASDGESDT
Summary of the method: as §1

[8] = target: T8, 380 human recombinant protein kinases (Homo sapiens, UniProt Q8WU08); details: STK32A(h), read-out: Inhibition rate (%)
T8 construct: purchased Eurofins (Celle Lévescault)
T8 sequence (Q8WU08 whole entry): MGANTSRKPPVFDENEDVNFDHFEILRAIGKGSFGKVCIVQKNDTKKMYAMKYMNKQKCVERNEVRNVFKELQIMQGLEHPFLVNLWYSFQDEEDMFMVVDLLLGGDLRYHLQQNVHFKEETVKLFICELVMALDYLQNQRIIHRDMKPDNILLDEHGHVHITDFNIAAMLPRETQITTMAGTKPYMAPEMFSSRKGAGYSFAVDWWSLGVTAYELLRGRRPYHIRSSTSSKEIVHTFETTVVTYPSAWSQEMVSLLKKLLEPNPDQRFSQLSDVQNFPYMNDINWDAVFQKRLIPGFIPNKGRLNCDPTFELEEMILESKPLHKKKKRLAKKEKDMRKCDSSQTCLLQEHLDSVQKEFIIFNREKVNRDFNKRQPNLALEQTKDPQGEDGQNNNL
Summary of the method: as §1

[9] = target: T9, 380 human recombinant protein kinases (Homo sapiens, UniProt P08069); details: IGF-1R(h), read-out: Inhibition rate
T9 construct: purchased Eurofins (Celle Lévescault)
T9 sequence (P08069 31-1367): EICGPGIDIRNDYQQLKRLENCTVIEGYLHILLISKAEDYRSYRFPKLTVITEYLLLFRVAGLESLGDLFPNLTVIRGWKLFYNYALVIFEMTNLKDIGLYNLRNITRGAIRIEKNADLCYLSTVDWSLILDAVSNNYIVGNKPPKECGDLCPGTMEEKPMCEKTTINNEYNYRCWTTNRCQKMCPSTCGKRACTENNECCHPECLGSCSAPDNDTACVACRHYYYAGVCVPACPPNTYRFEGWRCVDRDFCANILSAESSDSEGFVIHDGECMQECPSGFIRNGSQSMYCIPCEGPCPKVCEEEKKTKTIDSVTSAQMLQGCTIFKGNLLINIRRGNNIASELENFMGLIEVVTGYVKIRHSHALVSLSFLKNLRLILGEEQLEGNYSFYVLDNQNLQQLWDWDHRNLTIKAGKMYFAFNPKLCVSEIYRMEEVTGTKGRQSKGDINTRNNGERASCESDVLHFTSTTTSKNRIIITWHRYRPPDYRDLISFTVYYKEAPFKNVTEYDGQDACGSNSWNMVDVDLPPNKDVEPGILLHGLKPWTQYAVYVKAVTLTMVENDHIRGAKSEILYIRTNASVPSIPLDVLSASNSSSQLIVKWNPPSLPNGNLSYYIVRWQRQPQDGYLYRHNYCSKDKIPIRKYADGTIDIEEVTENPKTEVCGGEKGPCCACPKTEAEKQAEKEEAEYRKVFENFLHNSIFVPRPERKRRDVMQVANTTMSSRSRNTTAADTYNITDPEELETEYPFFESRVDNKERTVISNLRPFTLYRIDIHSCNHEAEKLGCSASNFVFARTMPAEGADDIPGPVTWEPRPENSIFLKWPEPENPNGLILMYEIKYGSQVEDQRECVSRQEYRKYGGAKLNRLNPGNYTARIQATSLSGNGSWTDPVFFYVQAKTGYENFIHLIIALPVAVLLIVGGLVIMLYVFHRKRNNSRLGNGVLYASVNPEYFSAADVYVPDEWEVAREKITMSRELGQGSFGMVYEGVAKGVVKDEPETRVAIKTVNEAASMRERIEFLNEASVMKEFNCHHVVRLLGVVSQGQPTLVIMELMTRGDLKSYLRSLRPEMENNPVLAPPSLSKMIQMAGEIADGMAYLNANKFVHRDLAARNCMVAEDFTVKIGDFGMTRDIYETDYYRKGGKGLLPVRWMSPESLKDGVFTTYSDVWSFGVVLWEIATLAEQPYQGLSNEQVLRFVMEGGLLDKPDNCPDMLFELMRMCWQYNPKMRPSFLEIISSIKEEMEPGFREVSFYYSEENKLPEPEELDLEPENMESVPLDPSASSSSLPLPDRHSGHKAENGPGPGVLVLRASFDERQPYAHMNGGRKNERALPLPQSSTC
Summary of the method: as §1

`C=CC(=O)Nc1cc(-c2cc(-c3cc4c([nH]3)CCNC4=O)ccn2)ccc1OC(F)(F)F` [compound 11] showed an inhibition at 0.01 µM ([1]; 10 nM) of -9%, an inhibition at 0.1 µM ([1]; 100 nM) of -5% and an inhibition at 1 µM ([1]; 1000 nM) of -3%. For the same compound, the inhibition at 0.01 µM ([2]; 10 nM) was -7%, the inhibition at 0.1 µM ([2]; 100 nM) was -5% and the inhibition at 1 µM ([2]; 1000 nM) was 0%. The inhibition at 0.01 µM ([3]; 10 nM) was -2%, the inhibition at 0.1 µM ([3]; 100 nM) was -1% and the inhibition at 1 µM ([3]; 1000 nM) was 5%. The inhibition at 0.01 µM ([4]; 10 nM) was -1%, the inhibition at 0.1 µM ([4]; 100 nM) was 7% and the inhibition at 1 µM ([4]; 1000 nM) was -13%. For the same compound, the inhibition at 0.01 µM ([5]; 10 nM) was 9%, the inhibition at 0.1 µM ([5]; 100 nM) was 4% and the inhibition at 1 µM ([5]; 1000 nM) was 33%. It also gave an inhibition at 0.01 µM ([6]; 10 nM) of -5%, an inhibition at 0.1 µM ([6]; 100 nM) of -7% and an inhibition at 1 µM ([6]; 1000 nM) of 13%. For the same compound, the inhibition at 0.01 µM ([7]; 10 nM) was 0%, the inhibition at 0.1 µM ([7]; 100 nM) was -1% and the inhibition at 1 µM ([7]; 1000 nM) was 3%. For the same compound, the inhibition at 0.01 µM ([8]; 10 nM) was 3%, the inhibition at 0.1 µM ([8]; 100 nM) was 10% and the inhibition at 1 µM ([8]; 1000 nM) was 7%. It also gave an inhibition at 0.01 µM ([9]; 10 nM) of -3%, an inhibition at 0.1 µM ([9]; 100 nM) of -2% and an inhibition at 1 µM ([9]; 1000 nM) of -14%.
